In ChEMBL document CHEMBL1131700, “Synthesis and biological evaluation of novel cryptophycin analogs with modification in the beta-alanine region” (Bioorg Med Chem Lett, 1999):

species on record: Homo sapiens; experiment: Antiproliferative activity was evaluated by the 72 hr MTT cell viability assay using human colon carcinoma cells (GC3).; type: functional; conditions: Homo sapiens, MTT, 72 h

SMILES	IC50 [nM]
COc1ccc(C[C@H]2NC(=O)/C=C/C[C@@H]([C@H](C)[C@H]3O[C@@H]3c3ccccc3)OC(=O)[C@H](CC(C)C)OC(=O)[C@H](C)CNC2=O)cc1Cl [CRYPTOPHYCIN A]	0.24
COc1ccc(C[C@H]2NC(=O)/C=C/C[C@@H]([C@H](C)[C@H]3O[C@@H]3c3ccccc3)OC(=O)[C@H](CC(C)C)OC(=O)C[C@@H](c3ccccc3)NC2=O)cc1Cl	0.94
COc1ccc(C[C@H]2NC(=O)/C=C/C[C@@H]([C@H](C)[C@H]3O[C@@H]3c3ccccc3)OC(=O)[C@H](CC(C)C)OC(=O)[C@H](C(C)C)NC2=O)cc1Cl	306
COc1ccc(C[C@H]2NC(=O)/C=C/C[C@@H]([C@H](C)[C@H]3O[C@@H]3c3ccccc3)OC(=O)[C@H](CC(C)C)OC(=O)[C@H](Cc3ccccc3)NC2=O)cc1Cl	1000
COc1ccc(C[C@H]2NC(=O)/C=C/C[C@@H]([C@H](C)[C@H]3O[C@@H]3c3ccccc3)OC(=O)[C@H](CC(C)C)OC(=O)C(C)(C)CNC2=O)cc1Cl [CRYPTOPHYCIN 52]	0.2
COc1ccc(C[C@H]2NC(=O)/C=C/C[C@@H]([C@H](C)[C@H]3O[C@@H]3c3ccccc3)OC(=O)[C@H](CC(C)C)OC(=O)c3ccccc3NC2=O)cc1Cl	870
COc1ccc(C[C@H]2NC(=O)/C=C/C[C@@H]([C@H](C)[C@H]3O[C@@H]3c3ccccc3)OC(=O)[C@H](CC(C)C)OC(=O)[C@H](C)NC2=O)cc1Cl	13
COc1ccc(C[C@H]2NC(=O)/C=C/C[C@@H]([C@H](C)[C@H]3O[C@@H]3c3ccccc3)OC(=O)[C@H](CC(C)C)OC(=O)[C@@H]3CCCCC3NC2=O)cc1Cl (some centres not stated)	1.3
COc1ccc(C[C@H]2NC(=O)/C=C/C[C@@H]([C@H](C)[C@H]3O[C@@H]3c3ccccc3)OC(=O)[C@H](CC(C)C)OC(=O)[C@H](CC(C)C)NC2=O)cc1Cl	320
COc1ccc(C[C@H]2NC(=O)/C=C/C[C@@H]([C@H](C)[C@H]3O[C@@H]3c3ccccc3)OC(=O)[C@H](CC(C)C)OC(=O)C[C@@H](Cc3ccccc3)NC2=O)cc1Cl	5.2
COc1ccc(C[C@H]2NC(=O)/C=C/C[C@@H]([C@H](C)[C@H]3O[C@@H]3c3ccccc3)OC(=O)[C@H](CC(C)C)NC(=O)C[C@@H](C)NC2=O)cc1Cl	0.06
COc1ccc(C[C@H]2NC(=O)/C=C/C[C@@H]([C@H](C)[C@H]3O[C@@H]3c3ccccc3)OC(=O)[C@H](CC(C)C)OC(=O)C[C@@H](CC(C)C)NC2=O)cc1Cl	3
COc1ccc(C[C@H]2NC(=O)/C=C/C[C@@H]([C@H](C)[C@H]3O[C@@H]3c3ccccc3)OC(=O)[C@H](CC(C)C)OC(=O)[C@@H]3CCCN3C2=O)cc1Cl	> 1500

same assay, conditions: mtt

SMILES	IC50 [nM]
COc1ccc(C[C@H]2NC(=O)/C=C/C[C@@H]([C@H](C)[C@H]3O[C@@H]3c3ccccc3)OC(=O)[C@H](CC(C)C)OC(=O)C[C@@H](C)NC2=O)cc1Cl (stereo in doubt; 12a)	0.4
COc1ccc(C[C@H]2NC(=O)/C=C/C[C@@H]([C@H](C)[C@H]3O[C@@H]3c3ccccc3)OC(=O)[C@H](CC(C)C)OC(=O)C[C@@H](C)NC2=O)cc1Cl (stereo in doubt; 12b)	0.03

species on record: Mus musculus; experiment: Compound was tested for its antitumor activity in murine pancreatic adenocarcinoma PO3 model at the maximum tolerated dose(MTD); type: functional; conditions: not given

SMILES	T/C [%]
COc1ccc(C[C@H]2NC(=O)/C=C/C[C@@H]([C@H](C)[C@H]3O[C@@H]3c3ccccc3)OC(=O)[C@H](CC(C)C)OC(=O)[C@H](C)CNC2=O)cc1Cl [CRYPTOPHYCIN A]	< 5
COc1ccc(C[C@H]2NC(=O)/C=C/C[C@@H]([C@H](C)[C@H]3O[C@@H]3c3ccccc3)OC(=O)[C@H](CC(C)C)OC(=O)C(C)(C)CNC2=O)cc1Cl [CRYPTOPHYCIN 52]	< 5
